Results from ChEMBL document CHEMBL5154801, “Virtual screening and crystallographic studies reveal an unexpected γ-lactone derivative active against MptpB as a potential antitubercular agent” (Eur J Med Chem, 2022).
pIC50: −log10 of the molar value.

Tests used:
[1] = biological target: T1, Phosphotyrosine-protein phosphatase PTPB (Mycobacterium tuberculosis) (UniProt P96830); assay: Inhibition of Mycobacterium tuberculosis PTPB expressed in Escherichia coli BL21 (DE3) assessed as residual activity at 100 uM using p-nitrophenyl phosphate as substrate relative to control
T1 sequence (whole entry): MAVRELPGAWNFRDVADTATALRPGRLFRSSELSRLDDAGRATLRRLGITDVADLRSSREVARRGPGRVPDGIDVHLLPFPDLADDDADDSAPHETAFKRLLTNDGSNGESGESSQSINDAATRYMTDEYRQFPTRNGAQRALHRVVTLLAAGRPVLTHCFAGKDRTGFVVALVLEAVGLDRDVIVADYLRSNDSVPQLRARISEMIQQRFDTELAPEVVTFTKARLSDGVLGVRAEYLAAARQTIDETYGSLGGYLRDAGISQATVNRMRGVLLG

[2] = biological target: T2, Phosphotyrosine-protein phosphatase PTPB (Mycobacterium tuberculosis, UniProt P96830); assay: Inhibition of Mycobacterium tuberculosis PTPB expressed in Escherichia coli BL21 (DE3) assessed as residual activity
T2 sequence (P96830 whole entry): T1 sequence (whole entry)

[3] = biological target: T2, Phosphotyrosine-protein phosphatase PTPB; assay: Inhibition of Mycobacterium tuberculosis PTPB expressed in Escherichia coli BL21 (DE3) in presence of DTT by PAINS assay
[4] = biological target: T2, Phosphotyrosine-protein phosphatase PTPB; assay: Inhibition of Mycobacterium tuberculosis PTPB expressed in Escherichia coli BL21 (DE3) in presence of BSA by PAINS assay
[5] = Cytotoxicity against human MRC5 cells assessed as reduction in cell viability at 200 to 0.02 uM measured after 96 hrs; type: toxicity, cell-based
[6] = Cytotoxicity against human WI-38 cells assessed as reduction in cell viability at 200 to 0.02 uM measured after 96 hrs; type: toxicity, cell-based

SMILES | Activity [1] [%] | pIC50 [2] | other results
COc1cccc(C2CC(O)=Nc3c(C(=O)O)cn(-c4cccc(F)c4)c32)c1OC (stereo not drawn) | 101 |  | 
Cc1nc(-c2cccnc2-n2cnc(C(=O)O)c2)no1 | 83.2 |  | 
O=C1OC(c2ccccc2C(F)(F)F)C(c2ccc3ccccc3n2)=C1O (stereo in doubt; 1-E2) [listing 1 of 2 here] | 27.7 |  | 
CC(C)c1nnc(NC(=O)C(=O)O)s1 | 87.2 |  | 
O=C1OC(c2ccccc2C(F)(F)F)C(c2ccc3ccccc3n2)=C1O (stereo in doubt; 1-E2) [listing 2 of 2 here] |  | 4.14 | 
O=C(O)c1cc(-c2cc(Cl)ccc2Cl)[nH]n1 | 109 |  | 
O=C(O)C(=O)/C(=C/c1ccccc1C(F)(F)F)c1ccc2ccccc2n1 | 24.3 | 4.32 | pIC50 [3]: 4.33; pIC50 [4]: 4.29; IC50 at 96 h [5]: > 200 µM; IC50 at 96 h [6]: > 200 µM
O=C1OC(c2ccccc2C(F)(F)F)C(c2ccc3ccccc3n2)=C1O (stereo in doubt; 1-E1) [listing 1 of 2 here] | 14.2 |  | 
CCOC(=O)c1c(NC(=O)C(=O)O)sc2c1CCCC2 | 69.5 |  | 
O=C1OC(c2ccccc2C(F)(F)F)C(c2ccc3ccccc3n2)=C1O (stereo in doubt; 1-E1) [listing 2 of 2 here] |  | 4.51 | 
CC1(C)Cc2c(sc(NC(=O)C(=O)O)c2C(=O)O)CO1 | 104 |  | 
Cc1onc(C(=O)O)c1-c1cccc(-c2cc(Cl)c(O)c(Cl)c2)c1 | 10.9 | 4.59 | 
